This is an account of results in US6949521B2, “Therapeutic azide compounds” (priority 1995, dated 2005).

Like-named read-outs stand apart in the source and are kept apart here.

Data set [1] can be described thus: Pharmacokinetics in mouse serum after iv and oral administration of cordycepin or its azide derivative. The class given is in vivo, mice. As for the experimental part:
100 mg/kg of cordycepin or the azide derivative of cordycepin were administered intravenously (iv) (dissolved in methylsulfoxide (20 mg/ml)), or orally (dissolved in 30% glycerin (8.3 mg/ml)). Three animals for each time point were sacrificed at 0.08, 0.25, 0.5, 0.75, 1.0, 1.5, 2.0, 3.0 and 4.0 h after drug administration. Blood (serum) was collected and immediately analyzed.
An AzdU was used as an internal standard (20 μg/ml) to measure the azide derivative concentrations in serum. Tubes were vortexed and centrifuged at 9,000 rpm for 5 min.
To neutralize, perchloric acid supernatant was transferred into a clean tube with 160 μl of concentrated sodium tetraborate solution (pH 6.5). Tubes were vortexed again and centrifuged at 12,000 rpm for 15 min. Samples were held at 0° C. during analysis.
Chromatographic separations were carried out on a Shimadzy gradient HPLC system (Shimadzy Corporation, Kyoto, Japan), which was equipped with a Model SPD-10A UV detector, a Model L-10AS pump, a Model SIL-10A autosampler, a controller Model SCL-10A and a Model CR-501 reporting integrator. Chromatography was performed on an Alltech Hypersil ODS (5 μm particle size, 4.6×250 mm, Ailtech Associates, Deerfield, Ill.) to determine cordycepin and its metabolite. The azide derivative of cordycepin was analyzed on an Alltech Hypersil BDS column (5 μm particle size, 4.6×250 mm, Alltech Associates, Deerfield, Ill.).
The mobile phase for cordycepin and metabolite analysis in serum consisted of 3% acetonitrile in 20 mM sodium borate and 10 mM EDTA (pH 6.5) at a flow of 1.4 ml/min and the mobile phase for azide derivative analysis in serum consisted of 3% acetonitrile 20 mM in potassium phosphate (pH 4.0) at a flow of 1.5 ml/min. The UV detector was set at 258 nm for analysis of cordycepin and metabolite and at 290 nm for the azide derivative.
The limit of quantitation was 0.05 μg/ml for cordycepin and metabolite and 0.5 μg/ml for the azide derivative.
Plasma concentration versus time data for nucleosides were analyzed by noncompartment methods. […] Prog. Biomed. (1983) 16:203-216.
Absolute bioavailability (F) of the azide derivative was calculated from AUCor/AUCiv, where AUC values were determined from serum nucleoside concentration versus time data.
Relative exposures for cordycepin and its metabolite in serum after or versus iv administration of the derivative were calculated from AUCor/AUCiv.

Data set [2] is described as follows: In vitro stability in PBS, mouse serum, brain and liver homogenate (FAAddP, FMAddA). The format is in vitro ADME. As for the experimental part:
In vitro stability in serum, brain and liver homogenate. Liver and brain homogenate were prepared in a 1: 1 (g:mL) ratio with isotonic 0.05 M phosphate buffer, pH 7.4. FAAddP (70 μM) or FMAddA (50 μM) were added to the mouse serum, the brain homogenate or the liver homogenate and incubated in a shaker water bath at 37° C. Aliquots of 100 μL were removed at time zero and at selected times for up to 6 hours. Concentrations of the compounds were determined by HPLC.
(§1) Analytical Methodology. […] The brain or liver tissue were homogenized in a 1:1 (g:mL) ratio with ice cold isotonic 0.05 M phosphate buffer, pH 7.4. […] Acetonitrile (600 μL) containing 0.1% acetic acid was added while vortexing to precipitate proteins. The tubes were centrifuged at 3,000 rpm for five minutes and the supernatant was transferred to a clean tube. Supernatant was evaporated to dryness under a stream of nitrogen gas at room temperature. The residual film was reconstituted in 110 μL of mobile phase and 50 μL was injected onto the HPLC.
(§2) Chromatographic separations were performed using a Hypersil ODS column 150×4.5 mm, 5 μm particle size (Alltech Associates, Deerfield, Ill.) preceded by a guard column packed with 30-40 μm pellicular Perisorb RP-18. Mobile phase flow rate was 2 mL/min. For the analysis of FAAddP and 2′-F-ara-ddA, the mobile phase consisted of 7% (v/v) acetonitrile in 80 mM sodium acetate, pH 5.0. […] Eluants were monitored at a UV wavelength of 260 nm.
(§3) Nucleoside standards ranging from 0.04 μg/mL to 100 μg/mL, prepared in blank PBS, serum, brain homogenate and liver homogenate were treated the same as unknown samples. Samples with nucleoside concentrations greater than 100 μg/mL were diluted with the appropriate blank matrix.
Data analysis in vitro studies.

A short description of a further data set: in vivo. Particulars: mouse, in vivo.
Excerpt: Animal studies. […] Animal studies were approved by the University of Georgia Animal Care and Use Committee and conducted in accordance with guidelines established by the Animal Welfare Act and the National Institutes of Health Guide for the Care and Use of Laboratory Animals. […] Animals were acclimatized to this environment for one week prior to the experiments.
At selected time intervals, mice (three animals per each time point) were anesthetized with diethyl ether and sacrificed by exsanguination via left ventricular heart puncture. Serum was harvested from blood collected. The brain was excised, rinsed with normal saline, blotted dry and weighed.
as §1, §2, §3
Data analysis in vivo studies. Nucleoside concentration as a function of time data were analyzed by a non-compartmental technique. […] Relative brain exposure (re) was calculated from AUCbrain/AUCserum.

Data set [3] has as its target T1, adenosine deaminase (type VII from calf intestinal mucosa) (Bos taurus, UniProt P56658).
T1 construct: type VII from calf intestinal mucosa; purchased Sigma Chemical Co., St. Louis, Mo. type VII; host or cells: calf intestinal mucosa
T1 sequence (P56658 1-363): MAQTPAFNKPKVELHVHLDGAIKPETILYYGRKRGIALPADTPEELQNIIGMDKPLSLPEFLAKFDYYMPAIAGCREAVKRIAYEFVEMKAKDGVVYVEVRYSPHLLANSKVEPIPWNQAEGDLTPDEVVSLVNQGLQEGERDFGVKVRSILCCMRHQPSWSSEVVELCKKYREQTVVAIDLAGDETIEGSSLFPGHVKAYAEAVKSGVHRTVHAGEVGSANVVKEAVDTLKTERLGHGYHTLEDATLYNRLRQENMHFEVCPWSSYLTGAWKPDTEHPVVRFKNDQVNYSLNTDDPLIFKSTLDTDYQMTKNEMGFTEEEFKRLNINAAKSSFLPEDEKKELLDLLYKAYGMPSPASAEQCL
Kind of data set: Deamination by adenosine deaminase (2′-fluoronucleosides). The format is biochemical. As for the experimental part: Deamination of 2′-F-ara-ddA and FMAddA by adenosine deaminase. Samples (1.5 mL) of 2′-F-ara-ddA (80 μM) or FMAddA (50 μM) were prepared in 0.05 M isotonic phosphate buffer, pH 7.4, and placed into a shaking water bath at 37° C. The reaction was initiated by the addition of 15 μL of adenosine deaminase (type VII from calf intestinal mucosa, Sigma Chemical Co., St. Louis, Mo.). The final activity in the incubation media was 0.05 U/mL for 2′-F-ara-ddA and 1.0 U/mL for FMAddA. At specified time intervals, aliquots of 100 μL were withdrawn for the determination of 2′-F-ara-ddA and 2′-F-ara-ddI or FMAddA and 2′-F-ara-ddI concentrations.
Mobile phase flow rate was 2 mL/min.

Another data set in a line: in vitro. Particulars: female, NIH Swiss, mouse, liver homogenate.
Data set [4] in a line: In vitro metabolism study of 6-AAP and ara-A in mouse liver homogenate, serum and brain homogenate.
Method: All the solvents were of HPLC grade. Chromatography was performed on an Altech Hypersil ODS C18 (5 μm particle size, 4.5×150 mm, Altech Associates, Deerfield, Ill.).
In vitro metabolism study. Female NIH Swiss mice (Harland Sprague-Dawley, Indianapolis, Ind.) were sacrificed and serum, liver and brain tissues were collected before each experiment. Serum was collected from several animals. The brain and liver were washed in normal saline at 4° C., wiped and then weighed. […] Samples and blanks of volume 400 μL were collected at 0, 5, 15, and 30 minutes and at 1, 2, 3, 4 and 5 hours.
To measure the analyte concentrations in serum, liver or brain homogenate, 400 μL of sample was mixed with 50 μL of internal standard (AzdU, 5 μg/mL) and 0.7 mL of acetonitrile. After centrifugation, the supernatant was decanted to another tube and treated with anhydrous Na2SO4, then vortexed for one minute and centrifuged again. The organic layer was separated and evaporated under nitrogen stream at room temperature. The residue was reconstituted in mobile phase A and filtered through MPS-I micropartition system (3KD membranes (Amicon Inc., Beverly, Mass.) by centrifugation for 50 minutes at 2000 rpm to further clean-up the samples. 100 μL of filtrate was injected for analysis.
The mark [5] stands for this setting: female, NIH Swiss, mouse, in vivo, po, 100 mg/kg.
Where [6] appears, read: mouse serum, after iv azide derivative 100 mg/kg.
Setting [7] is: mouse serum, after oral azide derivative 100 mg/kg.
Where [8] appears, read: 6-AAP incubated in mouse liver homogenate.
The mark [9] stands for this setting: female, NIH Swiss, mouse, in vivo, iv, 100 mg/kg.

Consider `Nc1ncnc2c1ncn2[C@@H]1O[C@H](CO)C[C@H]1O` [Cordycepin, 3′-deoxyadenosine, reference compound], for which the AUC(0-inf) was determined as 2170 ± 350 ng·h/mL in data set [1] (female, NIH Swiss, in vivo, mouse serum, after iv azide derivative 100 mg/kg, read-out: AUC0→∞ iv) and 1630 ± 150 ng·h/mL in data set [1] (female, NIH Swiss, in vivo, mouse serum, after oral azide derivative 100 mg/kg, read-out: AUC0→∞ oral). The Cmax stood at 3890 ± 1720 ng/mL in data set [1] (female, NIH Swiss, in vivo, mouse serum, after iv azide derivative 100 mg/kg, read-out: Cmax (maximal measured concentration) iv) and 1180 ± 600 ng/mL in data set [1] (female, NIH Swiss, in vivo, mouse serum, after oral azide derivative 100 mg/kg, read-out: Cmax (maximal measured concentration) oral). Moreover, the half-life is 14.4 min in data set [1] (female, NIH Swiss, in vivo, mouse serum, after iv azide derivative 100 mg/kg, read-out: T½ iv (converted)) and 45.6 min in data set [1] (female, NIH Swiss, in vivo, mouse serum, after oral azide derivative 100 mg/kg, read-out: T½ oral (converted)). Besides, in data set [1] (female, NIH Swiss, mouse, in vivo, iv), the “time of detection of cordycepin in serum above 0.05 μg/ml, iv” value is recorded as not above 1.5 h. For the same compound, the “time of detection of cordycepin in serum above 0.05 μg/ml, oral” value in data set [1] (female, NIH Swiss, mouse, in vivo, po) is not above 3 h. Moreover, the detection in serum result in data set [1] (setting [5]) is “Neither 3′-deoxyinosine nor cordycepin were detected”. Besides, the “re - relative exposure: AUC ratio oral vs. intravenous (AUCor/AUCiv)” value in data set [1] (mouse serum, after azide derivative 100 mg/kg) is 0.75. In addition, the “cordycepin in serum samples collected 10 min later” value in data set [1] (mouse, in vivo, iv, 100 mg/kg) is on record as “not recovered”. Moreover, the “cordycepin in serum samples collected at 5 min” value in data set [1] (mouse, in vivo, iv, 100 mg/kg) is listed as “trace amount”.
For the compound `CNc1ncnc2c1ncn2[C@@H]1O[C@H](CO)C[C@@H]1F` [FMAddA, N^6-methyl-2′,3′-dideoxy-2′-fluoro-β-D-arabinofuranosyladenine], the “stability in phosphate buffer saline” value in data set [2] (PBS pH 7.4, 37° C.) was “stable”. The “half-life in brain homogenate” value in data set [2] (mouse brain homogenate) is “stable”. For the same compound, the “t1/2 in liver homogenate (metabolized to 2′-F-ara-ddI)” value in data set [2] (mouse liver homogenate) turned out to be 546 min. Besides, the “degradation half-life in mouse serum” value in data set [2] (mouse serum, 37° C.) is reported as “stable”. Besides, the “intravenously administered dose of prodrug converted to 2′-F-ara-ddI” value in the data set “in vivo” worked out at 5.6%. Further, in the data set “in vivo” (iv), the “Steady-state volume of distribution” value is recorded as 0.79 L/kg and the Total clearance turned out to be 32.2 mL/min/kg. For the same compound, in data set [3] (PBS + adenosine deaminase), the “t½ upon addition of adenosine deaminase to PBS” value came to 27.6 min. Also, in data set [3] (PBS and brain homogenate + adenosine deaminase), the “extent of conversion to 2′-F-ara-ddI upon addition of adenosine deaminase” value is given as “virtually all of the prodrug was converted”. The “t1/2 upon addition of adenosine deaminase to brain homogenate” value in data set [3] (brain homogenate + adenosine deaminase) turned out to be 222 min.
As to `[N-]=[N+]=Nc1ncnc2c1ncn2[C@@H]1O[C@H](CO)C[C@H]1O` [Azide Deriv., N^6-azido-β-D-3′-deoxyribofuranosyl purine], the “absolute bioavailability after oral administration” value in data set [1] (mice, azide derivative) is given as 94%. In addition, in data set [1] (setting [6]), the “AUC0→∞ iv” value was determined as 47200 ± 4010 ng·h/mL, the “Cmax (maximal measured concentration) iv” value was found to be 143000 ± 33400 ng/mL and the T½ iv was determined as 21.6 min. This compound displayed a T½ iv in data set [1] (mouse serum, after iv azide derivative 100 mg/kg, listed as azide derivative) of 21 min. For the same compound, in data set [1] (setting [7]), the “AUC0→∞ oral” value is 44500 ± 2780 ng·h/mL, the “Cmax (maximal measured concentration) oral” value worked out at 48200 ± 12300 ng/mL and the T½ oral was 31.8 min.
As to `O=c1[nH]cnc2c1ncn2[C@@H]1O[C@H](CO)[C@@H](O)[C@@H]1O` [Ara-H, 9-(β-D-arabinofuranosyl)hypoxanthine], in the data set “in vitro”, the half-life at 100 μg/mL is 134 min. Also, the Kel in data set [4] (setting [8]) was determined as 0.26 h⁻¹; in data set [4] (Ara-A incubated in mouse liver homogenate), 0.31 h⁻¹. In data set [4] (setting [8]), the T1/2 stood at 147 min.
Consider `O=c1[nH]cnc2c1ncn2[C@@H]1O[C@H](CO)C[C@H]1O` [Metabolite, 3′-deoxyinosine], for which, in data set [1] (setting [9]), the AUC(0-inf) worked out at 3680 ± 260 ng·h/mL and the half-life is 30 min. In data set [1] (setting [5]), the AUC(0-inf) was 5890 ± 590 ng·h/mL, the detection in serum entry is “Neither 3′-deoxyinosine nor cordycepin were detected” and the half-life was 39 min.
